{"source": "paper PMC9729826", "about": "“Hypoaminoacidemia underpins glucagon-mediated energy expenditure and weight loss” (Cell Reports Medicine, 2022)", "assay_type_in_all_cases": "in vivo, mouse", "key": {"lean C57BL/6 mice [1]": {"tested_on": "lean C57BL/6 mice", "experiment": "Hepatic gene expression 24 h after a single dose in lean mice", "settings": "20 nmol/kg single s.c. dose, liver at 24 h, qPCR, n = 4/group", "protocol": "(§1) Twelve weight-matched 12-week-old lean C57BL/6 mice were fasted for 2 h prior to a single intraperitoneal injection of 10 nmol/kg dose of G108 diluted in sterile HPLC water (pH > 7), or vehicle control alone. Tail venesection was performed at baseline, 15, 30, 60 and 120 min and blood glucose measured using a handheld GlucoRx meter. For hepatic carbohydrate and amino acid metabolism gene expression analysis, weight-matched 12-week-old lean C57BL/6 mice were subcutaneously administered with 20 nmol/kg G108 diluted in sterile HPLC water (pH > 7), or vehicle control via subcutaneous injection at 9 am (N = 8). All animals had ad libitum access to RM1 diet and water. Liver tissue was dissected at 24 h and stored at −80°C prior to hepatic gene expression analysis.\nRNA was extracted from liver, muscle and BAT tissue using 1 mL TRIzol added to samples prior to homogenisation within a mechanical homogeniser for 2–3 min. Chloroform was added to each individual sample prior to gentle shaking and centrifugation at 16000 × g for 15 min. […] RNA was quantified in addition to quality assessed using a NanoDrop spectrophotometer and 1 μg of RNA was then used for the synthesis of cDNA using the iScript cDNA synthesis Kit (Bio-Rad). Quantitative polymerase chain reaction (qPCR) was then undertaken using the SYBR-Green method using KiCqStart SYBR Green primers (Merck)."}, "[2]": {"tested_on": "diet-induced obese (DIO) C57BL/6 mice", "experiment": "Essential and non-essential amino acid supplementation in G108-treated DIO mice", "settings": "7.5 nmol/kg daily, 14 days, n = 8/group", "description": "Lean 10-week-old C57BL/6 mice (N = 48) were provided ad libitum with a 60 kcal% high fat diet (diet D12492, Table S2) for 8 weeks. They were then provided with either a high fat standard protein diet (SP) (D08091803), a high fat standard protein diet supplemented with essential amino acids (SP + EAA) (Formula 2, Table S3), or a high fat standard protein diet supplemented with non-essential amino acids (SP + NEAA) (Formula 3, Table S3), N = 16/group. Mice from each diet group received either 7.5 nmol/kg G108 or vehicle control resulting in the following six treatment groups, N = 8/group: Vehicle/SP, 7.5 nmol/kg G108/SP, Vehicle/SP +EAA, 7.5 nmol/kg G108/SP + EAA, Vehicle/SP + NEAA, 7.5 nmol/kg G108 + NEAA. Food intake and body weight was measured every 48 h. Prior to commencing their respective diets, baseline body composition analysis was (EchoMRI) was carried out in addition to body composition analysis on day 11. Tail venesection was carried out on day 13 of the study 4 h following respective treatments. […]\n(§2) To measure energy expenditure, DIO mice were placed into a Comprehensive Laboratory Animal Monitoring System (CLAMS, Columbus instruments, Columbus, US). […] Food intake was also measured electronically without the need to remove food. […] Feed efficiency was calculated as mg body weight change per kJ consumed."}, "lean C57BL/6 mice [3]": {"tested_on": "lean C57BL/6 mice", "experiment": "Blood glucose after a single dose in lean mice", "settings": "10 nmol/kg single intraperitoneal injection, up to 2 h, n = 6/group", "protocol": "as §1"}, "[4]": {"tested_on": "diet-induced obese (DIO) C57BL/6 mice", "experiment": "Total amino acid supplementation in G108-treated DIO mice", "settings": "n = 8/group", "description": "Lean 10-week-old C57BL/6 mice (N = 32) were provided ad libitum a 60 kcal% high fat diet (diet D12492, Table S2) ad libitum for 8 weeks. Half of the animals were then provided with a high fat standard protein diet (D08091803, Table S2) or a high fat standard protein diet supplemented with additional total amino acids (SP + TAA diet, Formula 1, Table S3). From each diet group, animals were allocated to receive either 7.5 nmol/kg G108 or vehicle control (N = 8/group). The subsequent four treatment groups were as follows: Vehicle/SP diet, G108/SP diet, Vehicle/SP + TAA diet, G108/SP + TAA diet. Food intake and body weight was recorded every 48 h during the study. Baseline body composition analysis (EchoMRI) was carried out in addition body composition analysis on day 18. […]\nas §2\nPlasma total amino acids were measured using fluorometric-based ELISA kits as described (MAK002, Sigma-Aldrich, Ab65347, Abcam). Plasma FGF21 was measured using a fluorescent based ELISA kit (ab229382, Abcam). Plasma triglyceride, cholesterol and leptin were measured using ELISA kits (ab65336, ab65390, ab199082, Abcam). […]"}}, "note": "Starred links: 1 amine or outer side, 2 acyl side, 3 side chain; linkers in the order of their positions; H or OH if unused. Non-standard residues stand in square brackets, D forms with d. Residues, ends and D or L forms follow the SMILES beside them. Groups on a side chain read outwards from the residue. *: point of attachment. C18 diacid = O=C(O)CCCCCCCCCCCCCCCCC(=O)*; γGlu = O=C(O)[C@H](CCC(=O)[*:2])N[*:1]; Aib = CC(C)(N)C(=O)O", "data": [{"compound": "CC[C@H](C)[C@H](NC(=O)[C@H](Cc1ccccc1)NC(=O)[C@H](CCC(=O)O)NC(=O)[C@H](CCC(N)=O)NC(=O)[C@H](C)NC(=O)[C@H](CCCNC(=N)N)NC(=O)[C@H](CCCCN)NC(=O)[C@H](C)NC(=O)[C@H](CC(=O)O)NC(=O)[C@H](CC(C)C)NC(=O)[C@H](Cc1ccc(O)cc1)NC(=O)[C@H](CCCNC(=N)N)NC(=O)[C@H](CO)NC(=O)[C@H](Cc1ccc(O)cc1)NC(=O)[C@H](CC(=O)O)NC(=O)[C@H](CO)NC(=O)[C@@H](NC(=O)[C@H](Cc1ccccc1)NC(=O)[C@@H](NC(=O)CNC(=O)[C@H](Cc1c[nH]cn1)NC(=O)C(C)(C)NC(=O)[C@@H](N)Cc1c[nH]cn1)[C@@H](C)O)[C@@H](C)O)C(=O)N[C@@H](CCC(=O)O)C(=O)N[C@@H](Cc1c[nH]c2ccccc12)C(=O)N[C@@H](CC(C)C)C(=O)N[C@@H](CC(C)C)C(=O)N[C@@H](CCC(N)=O)C(=O)N[C@@H](CO)C(=O)N[C@@H](Cc1c[nH]cn1)C(=O)N[C@@H](Cc1c[nH]cn1)C(=O)N[C@@H](CCC(N)=O)C(=O)N[C@@H](Cc1c[nH]cn1)C(=O)N[C@@H](Cc1c[nH]cn1)C(=O)N1CCC[C@H]1C(=O)N[C@@H](CO)C(=O)N1CCC[C@H]1C(=O)N1CCC[C@H]1C(=O)N1CCC[C@H]1C(=O)N[C@@H](CCCCNC(=O)[C@H](CC(N)=O)NC(=O)CC[C@H](NC(=O)CCCCCCCCCCCCCCCCC(=O)O)C(=O)O)C(N)=O", "note": "[Peptide G108] (H-H[Aib]HGTFTSDYSRYLDAKRAQEFIEWLLQSHHQHHPSPPPK([Asn-γGlu-C18 diacid])-NH2; N-terminus and C-terminus assumed)", "values": [{"measurement": "expression of hepatic amino acid catabolism (urea cycle) genes", "setting": "lean C57BL/6 mice [1]", "result": "increased the expression of a number of genes involved in amino acid catabolism"}, {"measurement": "expression of hepatic gluconeogenic enzymes", "setting": "lean C57BL/6 mice [1]", "result": "increased the expression of hepatic gluconeogenic enzymes"}, {"measurement": "effects on weight loss and feed efficiency on SP diet supplemented with either EAAs or NEAAs", "setting": "[2]", "result": "not suppressed"}, {"measurement": "blood glucose after a single dose", "setting": "lean C57BL/6 mice [3]", "result": "acute increase in blood glucose"}, {"measurement": "body weight on SP diet supplemented with total amino acids (SP + TAA)", "setting": "[4]; 7.5 nmol/kg daily, 20 days", "result": "prevented G108-mediated weight loss independent of food intake"}, {"measurement": "blood glucose over 4 hours after acute administration", "setting": "[4]; single 7.5 nmol/kg dose, following a transient increase", "result": "reduction in blood glucose that lasted several hours"}]}]}
